Our source for the NO production, eNOS activity and NO generation values is patent publication US20160089391A1, “Molecular Targets for Cardiovascular Disease” (Temple University-of the Commonwealth System of Higher …, priority 2014, published 2016).

One test deals with NO production in HAECs. Put plainly: NO production in HAECs by DAF-FM staining. In kind it is cell-based, human. The note with it: for NO generation: HAECs, DL-Hcy 500 μmol/L and/or D-Glu 25 mmol/L for 48 hrs. As to the method:
(§1) (FIG. 6A). Images of NO. Nitric oxide (NO) production in HAECs was measured by staining intact HAECs with NO marker DAF-FM. N^G-nitro-L-arginine methyl ester (L-NAME, 100 μmol/L, Sigma #N5751) was added in the last hour as a negative control. (FIG. 6B). Quantification of NO. (FIG. 6C). eNOS activity. Human aortic endothelial cells (HAECs) were cultured in EC medium which contains 5 mmol/L D-Glucose (D-Glu), and treated with DL-homocysteine (DL-Hcy, 500 μmol/L) and/or (D-Glu, 25 mmol) without or with MDL28170 (MDL) for 48 hrs, CTsiRNA or μ-calpsiRNA for 72 hrs. L-NAME (100 μmol/L) was added in the last hour. NO was measured by staining intact HAECs with NO marker (DAF-FM, 10 μmol/L, Sigma #D2321, 30 mins.). Endothelial nitric oxide synthase (eNOS) activity was assessed by measuring of ^3H-L-arginine conversion to ^3H-citrulline in intact HAECs. n=3, *p<0.05 vs control; †p<0.05 vs DL-Hcy-treated HAECs; ‡p<0.05 vs D-Glu-treated HAECs; #p<0.05 vs DL-Hcy/D-Glu-treated HAECs. DAF-FM, 4-Amino-5-methylamino-2′,7′-difluorescein; CTsiRNA, control siRNA; HG, hyperglycemia; HHcy, hyperhomocysteinemia; μ-calpsiRNA, μ-calpain siRNA.
(§2) HAECs treated with or without DL-Hcy and/or D-Glu for 48 hrs were stained with 4-Amino-5-Methylamino-2′,7′-Difluorofluorescein (DAF-FM). To explore the role of calpain, especially μ-calpain, the DL-Hcy/D-Glu-treated HAECs were also treated with MDL28170 (MDL, 20 μmol/L) and μ-calpain siRNA, respectively. HAECs treated with L-NAME (100 μmol/L) for 1 hr before DAF-FM staining were used as negative controls. eNOS activity in HAECs was determined by measuring the conversion of ^3H-Arg to ^3H-citrulline in intact cells as previous described (Jiang et al., 2005, Arterioscl Throm Vas 25:2515-2521).

Another test addresses T1, eNOS (Homo sapiens, UniProt P29474).
T1 construct: endogenous in cells; host or cells: HAECs (human aortic endothelial cells)
T1 sequence (P29474 2-1203 limits assumed): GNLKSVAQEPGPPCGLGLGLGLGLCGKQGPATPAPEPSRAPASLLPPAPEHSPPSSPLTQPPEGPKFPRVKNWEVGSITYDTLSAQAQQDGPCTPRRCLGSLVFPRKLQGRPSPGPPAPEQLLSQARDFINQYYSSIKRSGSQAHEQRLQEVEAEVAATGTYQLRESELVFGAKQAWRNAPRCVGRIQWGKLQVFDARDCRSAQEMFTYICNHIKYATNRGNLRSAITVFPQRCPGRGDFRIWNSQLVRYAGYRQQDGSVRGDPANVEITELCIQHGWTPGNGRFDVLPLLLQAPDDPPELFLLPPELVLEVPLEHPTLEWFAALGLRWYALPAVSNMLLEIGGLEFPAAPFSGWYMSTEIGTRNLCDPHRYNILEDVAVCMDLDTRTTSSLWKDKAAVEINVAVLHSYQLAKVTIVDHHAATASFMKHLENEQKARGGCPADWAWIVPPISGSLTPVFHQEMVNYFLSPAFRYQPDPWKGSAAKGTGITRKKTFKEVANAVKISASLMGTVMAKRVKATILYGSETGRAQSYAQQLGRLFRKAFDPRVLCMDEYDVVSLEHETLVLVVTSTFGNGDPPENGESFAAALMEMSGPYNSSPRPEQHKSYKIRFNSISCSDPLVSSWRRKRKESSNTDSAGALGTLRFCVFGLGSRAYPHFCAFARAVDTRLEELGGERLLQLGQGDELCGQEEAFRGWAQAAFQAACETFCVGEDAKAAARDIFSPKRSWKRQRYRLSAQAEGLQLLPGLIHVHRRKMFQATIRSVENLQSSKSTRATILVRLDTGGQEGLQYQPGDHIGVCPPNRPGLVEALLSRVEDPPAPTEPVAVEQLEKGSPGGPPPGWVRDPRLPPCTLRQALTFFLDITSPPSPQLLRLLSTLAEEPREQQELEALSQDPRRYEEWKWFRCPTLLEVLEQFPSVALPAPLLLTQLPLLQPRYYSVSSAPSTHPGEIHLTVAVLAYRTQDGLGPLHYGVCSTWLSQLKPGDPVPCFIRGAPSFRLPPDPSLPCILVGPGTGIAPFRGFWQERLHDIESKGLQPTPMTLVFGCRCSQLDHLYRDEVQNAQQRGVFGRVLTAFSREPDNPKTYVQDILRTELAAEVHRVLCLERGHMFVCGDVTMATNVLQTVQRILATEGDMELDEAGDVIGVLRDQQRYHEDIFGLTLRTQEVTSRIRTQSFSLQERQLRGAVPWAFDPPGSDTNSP
The experiment in a line: eNOS activity in intact HAECs (3H-Arg to 3H-citrulline conversion). The class given is cell-based. As to the method:
as §1, §2

Setting [1] is: HAECs, DL-Hcy 500 μmol/L and/or D-Glu 25 mmol/L for 48 hrs, relative to control.

The compound MDL28170 registered an NO production in the test with NO production in HAECs (HHcy/HG (DL-Hcy/D-Glu)-treated HAECs, improved from 26%, MDL 20 μmol/L 48 hrs, siRNA 72 hrs) of 86%. On eNOS (HHcy/HG (DL-Hcy/D-Glu)-treated HAECs, improved from 35% (MDL) or printed 26% (siRNA), MDL 20 μmol/L 48 hrs, siRNA 72 hrs), this compound displayed an eNOS activity of 74%.
As to `O=C[C@H](O)[C@@H](O)[C@H](O)[C@H](O)CO` [D-Glu, D-glucose], in the test with NO production in HAECs, the NO generation is listed as 36 % of the control. Further, the eNOS activity on eNOS (setting [1]) is listed as 52%.
Consider `NC(CCS)C(=O)O` (racemic) [DL-Hcy, DL-homocysteine], for which the NO generation in the test on NO production in HAECs is reported as 78 % of the control. This compound also returned an eNOS activity on eNOS (setting [1]) of 69%.
